Test results as given in patent US20230097700A1, “AZETIDINE SULFONAMIDE COMPOUND” (DAIICHI SANKYO COMPANY, LIMITED, priority 2019, published 2023).
Where a name gives a salt, the structure may show the parent alone.

These compounds were tested on activated T cells (CD4+ T cells derived from the mouse spleen) (assay: Incorporation of 3H-thymidine into activated T cells). Settings: 3H-thymidine incorporation, mouse spleen CD4+ T cells activated with Dynabeads Mouse T-Activator CD3/CD28.
Assay type: cell-based, mouse (C57BL/6J)
Description: Effect of a test substance on incorporation of ^3H-thymidine was evaluated using T cells derived from the mouse spleen. The spleen was excised out from a C57BL/6J mouse euthanized, cut into pieces, ground on a cell strainer (40 μm mesh) and centrifuged to collect spleen cells. CD4+ T cells were isolated from the spleen cells by use of EasySep Mouse CD4+ T cell isolation kit (STEMCELL Technologies). CD4+ T cells were seeded to a 96-well round-bottom plate. Test substance dissolved in DMSO (dimethyl sulfoxide) or vehicle (DMSO) was added to culture medium and Dynabeads Mouse T-Activator CD3/CD28 (Thermo Fisher Scientific Inc.) was added. Culture was carried out at 37° C. in 5% CO2. After culture was carried out for 24 hours, ^3H-thymidine (PerkinElmer) diluted with the culture medium was added to individual wells. Culture was further carried out overnight at 37° C. in 5% CO2. In order to measure ^3H-thymidine incorporated in nuclei of the cells, the cells were collected on a filter plate UniFilter-96 GF/B (PerkinElmer) by use of a FilterMate Universal Harvester (PerkinElmer). After the filter plate was placed in a dryer and allowed to stand still for 2 hours or more, scintillation cocktail MicroScint-O (PerkinElmer) was added and radioactivity was measured by TopCount NXT (PerkinElmer). With the radioactivity of a group not containing a test substance being specified as 100% and the radioactivity of a group not activated being specified as 0%, relative radioactivity values of individual wells to which the test substance was added (proliferation rate, % of vehicle) were calculated. The values of “% of vehicle” were entered in analysis software Prism (Version 4.03, GraphPad Software). “Nonlinear regression Log (inhibitor) vs reaction variable tilt” was selected and sigmoid type-fitting (Bottom=0, Top=100) was carried out to calculate 50% inhibition concentration (IC50). The compound of the present invention suppresses ^3H-thymidine incorporation in activated T cells.

| IC50 [nM] | SMILES |
| --- | --- |
| 12 | N[C@@H](Cc1cccc(S(=O)(=O)N2CC(Oc3ccc(-c4ccccc4)cc3)(c3ccccc3)C2)c1)C(=O)O [Example 2, (2S)-2-Amino-3-(3-{3-[([1,1′-biphenyl]-4-yl)oxy]-3-phenylazetidin-1-sulfonyl}phenyl)propanoic acid] |
| 35 | N[C@@H](Cc1cccc(S(=O)(=O)N2CC(Oc3cccc(-c4ccccc4)c3)(c3ccccc3)C2)c1)C(=O)O [Example 3, (2S)-2-Amino-3-(3-{3-[([1,1′-biphenyl]-3-yl)oxy]-3-phenylazetidin-1-sulfonyl)phenyl)propanoic acid] |
| 6.6 | N[C@@H](Cc1cccc(S(=O)(=O)N2CC(Oc3ccc4nccnc4c3)(c3ccccc3)C2)c1)C(=O)O [Example 6, (2S)-2-Amino-3-(3-{3-phenyl-3-[(quinoxalin-6-yl)oxy]azetidin-1-sulfonyl}phenyl)propanoic acid monohydrochloride] |
| 16 | N[C@@H](Cc1cccc(S(=O)(=O)N2CC(Oc3ccc4c(c3)OCCO4)(c3ccccc3)C2)c1)C(=O)O [Example 7, (2S)-2-Amino-3-(3-{3-[(2,3-dihydro-1,4-benzodioxin-6-yl)oxy]-3-phenylazetidin-1-sulfonyl}phenyl)propanoic acid monohydrochloride] |
| 10 | N[C@@H](Cc1cccc(S(=O)(=O)N2CC(Oc3ccc4cn[nH]c4c3)(c3ccccc3)C2)c1)C(=O)O [Example 10, (2S)-2-Amino-3-(3-{3-[(1H-indazol-6-yl)oxy]-3-phenylazetidine-1-sulfonyl}phenyl)propanoic acid monohydrochloride] |
| 26 | CC(C)NC(=O)c1ccc(OC2(c3ccccc3)CN(S(=O)(=O)c3cccc(C[C@H](N)C(=O)O)c3)C2)cc1 [Example 11, (2S)-2-Amino-3-[3-(3-phenyl-3-{4-[(propan-2-yl)carbamoyl]phenoxy}azetidin-1-sulfonyl)phenyl]propanoic acid monoformate] |
| 21 | N[C@@H](Cc1cccc(S(=O)(=O)N2CC(Oc3ccc(OC(F)F)cc3)(c3ccccc3)C2)c1)C(=O)O [Example 12, (2S)-2-Amino-3-(3-{3-[4-(difluoromethoxy)phenoxy]-3-phenylazetidin-1-sulfonyl}phenyl)propanoic acid monoformate] |
| 14 | N[C@@H](Cc1cccc(S(=O)(=O)N2CC(Oc3cccc(F)c3)(c3ccc(F)cc3)C2)c1)C(=O)O [Example 15, (2S)-Amino-3-(3-{[3-(3-fluorophenoxy)-3-(4-fluorophenyl)azetidin-1-yl]sulfonyl}phenyl)propanoic acid] |
| 10 | Cc1ccc(OC2(c3ccccc3)CN(S(=O)(=O)c3cccc(C[C@H](N)C(=O)O)c3)C2)cc1 [Example 16, (2S)-Amino-3-(3-{[3-phenyl-3-(p-tolyloxy)azetidin-1-yl]sulfonyl)phenyl)propanoic acid] |
| 23 | N[C@@H](Cc1cccc(S(=O)(=O)N2CC(Oc3ccc(F)c(Cl)c3)(c3ccccc3)C2)c1)C(=O)O [Example 17, (2S)-Amino-3-(3-{[3-(3-chloro-4-fluorophenoxy)-3-phenylazetidin-1-yl]sulfonyl}phenyl)propanoic acid] |
| 14 | N#Cc1ccc(OC2(c3ccccc3)CN(S(=O)(=O)c3cccc(C[C@H](N)C(=O)O)c3)C2)cc1 [Example 18, (2S)-Amino-3-(3-{[3-(4-cyanophenoxy)-3-phenylazetidin-1-yl]sulfonyl}phenyl)propanoic acid] |
| 8.8 | NC(=O)c1ccc(OC2(c3ccccc3)CN(S(=O)(=O)c3cccc(C[C@H](N)C(=O)O)c3)C2)cc1 [Example 20, (2S)-2-Amino-3-{3-[3-(4-carbamoylphenoxy)-3-phenylazetidine-1-sulfonyl]phenyl}propanoic acid monoformate] |

Second part, the compound before the results:

| SMILES | IC50 [nM] |
| --- | --- |
| CC(=O)c1ccc(OC2(c3ccc(F)cc3)CN(S(=O)(=O)c3cccc(C[C@H](N)C(=O)O)c3)C2)cc1F [Example 4, (2S)-3-{3-[3-(4-Acetyl-3-fluorophenoxy)-3-(4-fluorophenyl)azetidine-1-sulfonyl]phenyl}-2-aminopropanoic acid monohydrochloride] | 12 |
| CC(=O)c1cc(OC2(c3ccc(F)cc3)CN(S(=O)(=O)c3cccc(C[C@H](N)C(=O)O)c3)C2)ccc1F [Example 5, (2S)-3-{3-[3-(3-Acetyl-4-fluorophenoxy)-3-(4-fluorophenyl)azetidine-1-sulfonyl]phenyl}-2-aminopropanoic acid monohydrochloride] | 30 |
| N[C@@H](Cc1cccc(S(=O)(=O)N2CC(Oc3ccc4c(c3)CCNC4=O)(c3ccc(F)cc3)C2)c1)C(=O)O [Example 8, (2S)-2-Amino-3-(3-{3-(4-fluorophenyl)-3-[(1-oxo-1,2,3,4-tetrahydroisoquinolin-6-yl)oxy]azetidin-1-sulfonyl}phenyl)propanoic acid monohydrochloride] | 13 |
| CC(=O)c1ccc(OC2(c3ccc(Cl)cc3)CN(S(=O)(=O)c3cccc(C[C@H](N)C(=O)O)c3)C2)cc1 [Example 9, (2S)-3-{3-[3-(4-Acetylphenoxy)-3-(4-chlorophenyl)azetidin-1yl]sulfonylphenyl}-2-aminopropanoic acid monohydrochloride] | 7.6 |
| Cc1ccc(C2(Oc3ccc(C#N)cc3)CN(S(=O)(=O)c3cccc(C[C@H](N)C(=O)O)c3)C2)cc1 [Example 13, (2S)-2-Amino-3-{3-[3-(4-cyanophenoxy)-3-(4-methylphenyl)azetidine-1-sulfonyl]phenyl}propanoic acid monoformate] | 9.1 |
| CC(=O)c1ccc(OC2(c3ccc(C)cc3)CN(S(=O)(=O)c3cccc(C[C@H](N)C(=O)O)c3)C2)cc1 [Example 14, (2S)-3-{3-[3-(4-Acetylphenoxy)-3-(4-methylphenyl)azetidine-1-sulfonyl]phenyl}-2-aminopropanoic acid monoformate] | 7.7 |
| CCC(=O)c1ccc(OC2(c3ccc(F)cc3)CN(S(=O)(=O)c3cccc(C[C@H](N)C(=O)O)c3)C2)cc1 [Example 19, (2S)-2-Amino-3-{3-[3-(4-fluorophenyl)-3-(4-propanoylphenoxy)azetidin-1-yl]sulfonylphenyl}propanoic acid monotrifluoroacetate] | 30 |
| CN(C)c1ccc(OC2(c3ccc(F)cc3)CN(S(=O)(=O)c3cccc(C[C@H](N)C(=O)O)c3)C2)cc1 [Example 21, (2S)-2-Amino-3-{3-[4-(dimethylamino)phenoxy]-3-(4-fluorophenyl)azetidin-1-yl]sulfonylphenyl}propanoic acid monohydrochloride] | 3.7 |
| NC(=O)c1ccc(OC2(c3ccc(F)cc3)CN(S(=O)(=O)c3cccc(C[C@H](N)C(=O)O)c3)C2)cc1 [Example 22, (2S)-2-Amino-3-{3-[3-(4-carbamoylphenoxy)-3-(4-fluorophenyl)azetidine-1-sulfonyl]phenyl}propanoic acid monotrifluoroacetate] | 4.8 |
| [2H]c1c([2H])c([2H])c(OC2(c3ccccc3)CN(S(=O)(=O)c3cccc(C[C@H](N)C(=O)O)c3)C2)c([2H])c1[2H] [Example 24, (2S)-2-Amino-3-(3-{3-phenyl-3-[(^2H5)phenyloxy]azetidin-1-sulfonyl}phenyl)propanoic acid] | 12 |
| C[C@H](OC(=O)[C@@H](N)Cc1cccc(S(=O)(=O)N2CC(Oc3cccc(F)c3)(c3ccccc3)C2)c1)C(=O)N(C)C [Example 31, (2S)-1-(Dimethylamino)-1-oxopropan-2-yl (2S)-2-amino-3-{3-[3-(3-fluorophenoxy)-3-phenylazetidin-1-sulfonyl]phenyl}propanoate monotrifluoroacetate] | 21 |
| C[C@@H](OC(=O)[C@@H](N)Cc1cccc(S(=O)(=O)N2CC(Oc3cccc(F)c3)(c3ccccc3)C2)c1)C(=O)N(C)C [Example 32, (2R)-1-(Dimethylamino)-1-oxopropan-2-yl (2S)-2-amino-3-{3-[3-(3-fluorophenoxy)-3-phenylazetidin-1-sulfonyl]phenyl}propanoate monotrifluoroacetate] | 18 |
| N#Cc1ccc(OC2(c3ccc(F)cc3)CN(S(=O)(=O)c3cccc(C[C@H](N)C(=O)O)c3)C2)cc1 [Example 34, (2S)-2-Amino-3-{3-[3-(4-cyanophenoxy)-3-(4-fluorophenyl)azetidine-1-sulfonyl]phenyl}propanoic acid monohydrochloride] | 3.3 |
| N[C@@H](Cc1cccc(S(=O)(=O)N2CC(Oc3ccc(Cl)cc3)(c3ccc(F)cc3)C2)c1)C(=O)O [Example 35, (2S)-2-Amino-3-{3-[3-(4-chlorophenoxy)-3-(4-fluorophenyl)azetidine-1-sulfonyl]phenyl}propanoic acid monohydrochloride] | 24 |
| N[C@@H](Cc1cccc(S(=O)(=O)N2CC(Oc3ccc(Cl)cc3)(c3ccc(F)c(F)c3)C2)c1)C(=O)O [Example 36, (2S)-2-Amino-3-{3-[3-(4-chlorophenoxy)-3-(3,4-difluorophenyl)azetidin-1-sulfonyl]phenyl}propanoic acid monohydrochloride] | 19 |
